Data published in patent US20150017667A1, “MEANS AND METHODS FOR ASSESSING LIVER DISORDERS” (BASF SE, priority 2012, published 2015).
Marks after values point to notes of the source that are not given here.

How the values were obtained:
male rats = test: 28-day repeated dose oral toxicity study (OECD 407) with GC-MS/LC-MS plasma metabolite profiling, male rats; format: in vivo, rat; details: plasma
Description: Drinking water was also offered ad libitum.
The samples were centrifuged for generation of plasma.

female rats = test: 28-day repeated dose oral toxicity study (OECD 407) with GC-MS/LC-MS plasma metabolite profiling, female rats
Description: A group of each 5 male and female rats was dosed once daily with the indicated compounds (see Table 5, below for compounds, applied doses and administeration details) over 28 days.
Each dose group in the studies consisted of five rats per sex. Additional groups of each 5 male and female animals served as controls. Before starting the treatment period, animals, which were 62-64 days old when supplied, were acclimatized to the housing and environmental conditions for 7 days. All animals of the animal population were kept under the same constant temperature (20-24±3° C.) and the same constant humidity (30-70%). The animals of the animal population were fed ad libitum. The food to be used was essentially free of chemical or microbial contaminants. Drinking water was also offered ad libitum. Accordingly, the water was free of chemical and microbial contaminants as laid down in the European Drinking Water Directive 98/83/EG. The illumination period was 12 hours light followed by 12 hours darkness (12 hours light, from 6:00 to 18:00, and 12 hours darkness, from 18:00 to 6:00).
In the morning of day 7, 14, and 28, blood was taken from the retroorbital venous plexus from fasted anaesthetized animals. From each animal, 1 ml of blood was collected with EDTA as anticoagulant. The samples were centrifuged for generation of plasma. All plasma samples were covered with a N2 atmosphere and then stored at −80° C. until analysis.
For mass spectrometry-based metabolite profiling analyses plasma samples were extracted and a polar and a non-polar (lipid) fraction was obtained. For GC-MS analysis, the non-polar fraction was treated with methanol under acidic conditions to yield the fatty acid methyl esters. Both fractions were further derivatised with O-methyl-hydroxyamine hydrochloride and pyridine to convert Oxogroups to O-methyloximes and subsequently with a silylating agent before analysis. In LC-MS analysis, both fractions were reconstituted in appropriate solvent mixtures. HPLC was performed by gradient elution on reversed phase separation columns.
Following comprehensive analytical validation steps, the data for each analyte were normalized against data from pool samples. These samples were run in parallel through the whole process to account for process variability. The significance of treatment group values specific for sex, treatment duration and metabolite was determined by comparing means of the treated groups to the means of the respective untreated control groups using WELCH-test and quantified with treatment ratios versus control and p-values.

## Cc1cccc(C)c1N(Cn1cccn1)C(=O)CCl [Metazachlor, N-(2,6-dimethylphenyl)-N-(pyrazol-1-ylmethyl)chloroacetamid]
Male rats; day 7
  4-Hydroxyphenylpyruvate, ratio versus control: 2.23*
  Glycerol-3-phosphate, polar fraction, ratio versus control: 1.04
  Phosphatidylcholine (C16:1,C18:2), ratio versus control: 1.29*
  Phosphatidylcholine (C18:0,C18:1), ratio versus control: 1.56*
  Phosphatidylcholine (C18:0,C18:2), ratio versus control: 1.4*
  Phytosphingosine, ratio versus control: 2.08*
Male rats; day 7 (Table 2)
  Lysophosphatidylcholine (C18:1), ratio versus control: 1.1*
  Phosphatidylcholine (C16:0,C20:5), ratio versus control: 1
  alpha-Tocopherol, ratio versus control: 1.8*
Male rats; day 14
  4-Hydroxyphenylpyruvate, ratio versus control: 2.59*
  Glycerol-3-phosphate, polar fraction, ratio versus control: 1.63*
  Phosphatidylcholine (C16:1,C18:2), ratio versus control: 2.11*
  Phosphatidylcholine (C18:0,C18:1), ratio versus control: 2.37*
  Phosphatidylcholine (C18:0,C18:2), ratio versus control: 1.55*
  Phytosphingosine, ratio versus control: 2.86*
Male rats; day 14 (Table 2)
  Lysophosphatidylcholine (C18:1), ratio versus control: 1.49*
  Phosphatidylcholine (C16:0,C20:5), ratio versus control: 1.47*
  alpha-Tocopherol, ratio versus control: 1.3*
Male rats; day 28
  4-Hydroxyphenylpyruvate, ratio versus control: 3.26*
  Glycerol-3-phosphate, polar fraction, ratio versus control: 1.52*
  Phosphatidylcholine (C16:1,C18:2), ratio versus control: 2.32*
  Phosphatidylcholine (C18:0,C18:1), ratio versus control: 2.06*
  Phosphatidylcholine (C18:0,C18:2), ratio versus control: 1.51*
  Phytosphingosine, ratio versus control: 3.2*
Male rats; day 28 (Table 2)
  Lysophosphatidylcholine (C18:1), ratio versus control: 1.33*
  Phosphatidylcholine (C16:0,C20:5), ratio versus control: 1.67*
  alpha-Tocopherol, ratio versus control: 1.49*
Female rats; day 7
  3-O-Methylsphingosine (d18:1), ratio versus control: 5.2*
  5-O-Methylsphingosine (d18:1), ratio versus control: 5.11*
  14-Methylhexadecanoic acid, ratio versus control: 1.18*
  Behenic acid (C22:0), ratio versus control: 2.8*
  Cholesterol, ratio versus control: 2.52*
  Coenzyme Q9, ratio versus control: 2.3*
  DAG (C18:1,C18:2), ratio versus control: 1.52*
  Eicosanoic acid (C20:0), ratio versus control: 2.17*
  Glucose, ratio versus control: 1.4*
  Glycerol phosphate, lipid fraction, ratio versus control: 2.41*
  Glycerol, lipid fraction, ratio versus control: 1.89*
  Glycerol-3-phosphate, polar fraction, ratio versus control: 1.61*
  Heptadecanoic acid (C17:0), ratio versus control: 1.53*
  Linoleic acid (C18:cis[9,12]2), ratio versus control: 2.33*
  Nervonic acid (C24:cis[15]1), ratio versus control: 4.5*
  Palmitic acid (C16:0), ratio versus control: 1.96*
  Phosphatidylcholine (C16:0,C20:5), ratio versus control: 1.18*
  TAG (C16:0,C18:1,C18:3), ratio versus control: 2.84*
  TAG (C16:0,C18:2), ratio versus control: 2.65*
  TAG (C18:1,C18:2), ratio versus control: 2.65*
  TAG (C18:2,C18:2), ratio versus control: 2.42*
  TAG (C18:2,C18:3), ratio versus control: 2.42*
  TAG No 01, ratio versus control: 1.87*
  TAG No 05, ratio versus control: 2.27*
  TAG No 07, ratio versus control: 1.97
  dihomo-gamma-Linolenic acid (C20:cis[8,11,14]3), ratio versus control: 2.69*
  erythro-Sphingosine, ratio versus control: 4.06*
Female rats; day 14
  3-O-Methylsphingosine (d18:1), ratio versus control: 7.58*
  5-O-Methylsphingosine (d18:1), ratio versus control: 7.74*
  14-Methylhexadecanoic acid, ratio versus control: 1.17*
  Behenic acid (C22:0), ratio versus control: 4.3*
  Cholesterol, ratio versus control: 2.96*
  Coenzyme Q9, ratio versus control: 2.09*
  DAG (C18:1,C18:2), ratio versus control: 1.92*
  Eicosanoic acid (C20:0), ratio versus control: 3.19*
  Glucose, ratio versus control: 1.17*
  Glycerol phosphate, lipid fraction, ratio versus control: 3.43*
  Glycerol, lipid fraction, ratio versus control: 2.34*
  Glycerol-3-phosphate, polar fraction, ratio versus control: 1.72*
  Heptadecanoic acid (C17:0), ratio versus control: 1.98*
  Linoleic acid (C18:cis[9,12]2), ratio versus control: 3.2*
  Nervonic acid (C24:cis[15]1), ratio versus control: 5.92*
  Palmitic acid (C16:0), ratio versus control: 2.83*
  Phosphatidylcholine (C16:0,C20:5), ratio versus control: 1.46*
  TAG (C16:0,C18:1,C18:3), ratio versus control: 3.67*
  TAG (C16:0,C18:2), ratio versus control: 3.69*
  TAG (C18:1,C18:2), ratio versus control: 2.74*
  TAG (C18:2,C18:2), ratio versus control: 2.51*
  TAG (C18:2,C18:3), ratio versus control: 2.89*
  TAG No 01, ratio versus control: 1.99*
  TAG No 05, ratio versus control: 4.68*
  TAG No 07, ratio versus control: 3.87*
  dihomo-gamma-Linolenic acid (C20:cis[8,11,14]3), ratio versus control: 4.76*
  erythro-Sphingosine, ratio versus control: 5.79*
Female rats; day 28
  3-O-Methylsphingosine (d18:1), ratio versus control: 5.44*
  5-O-Methylsphingosine (d18:1), ratio versus control: 5.42*
  14-Methylhexadecanoic acid, ratio versus control: 1.19*
  Behenic acid (C22:0), ratio versus control: 3.4*
  Cholesterol, ratio versus control: 2.72*
  Coenzyme Q9, ratio versus control: 1.75*
  DAG (C18:1,C18:2), ratio versus control: 2.94*
  Eicosanoic acid (C20:0), ratio versus control: 2.49*
  Glucose, ratio versus control: 0.99
  Glycerol phosphate, lipid fraction, ratio versus control: 2.93*
  Glycerol, lipid fraction, ratio versus control: 3.13*
  Glycerol-3-phosphate, polar fraction, ratio versus control: 1.55*
  Heptadecanoic acid (C17:0), ratio versus control: 2.08*
  Linoleic acid (C18:cis[9,12]2), ratio versus control: 3.43*
  Nervonic acid (C24:cis[15]1), ratio versus control: 5.03*
  Palmitic acid (C16:0), ratio versus control: 2.86*
  Phosphatidylcholine (C16:0,C20:5), ratio versus control: 1.26*
  TAG (C16:0,C18:1,C18:3), ratio versus control: 5.22*
  TAG (C16:0,C18:2), ratio versus control: 3.73*
  TAG (C18:1,C18:2), ratio versus control: 3.09*
  TAG (C18:2,C18:2), ratio versus control: 4.34*
  TAG (C18:2,C18:3), ratio versus control: 4.18*
  TAG No 01, ratio versus control: 3.16*
  TAG No 05, ratio versus control: 5.27*
  TAG No 07, ratio versus control: 4.1*
  dihomo-gamma-Linolenic acid (C20:cis[8,11,14]3), ratio versus control: 4.48*
  erythro-Sphingosine, ratio versus control: 4.33*
